Values of other authors, collected in patent publication EP3569066A1, “ECOLOGICAL FORMULA HAVING MULTIPLE ANTIMICROBIAL ACTION (BACTERICIDAL, FUNGICIDAL AND ANTI-VIRAL) BASED ON COMMERCIAL MOLECULES” (Arias Dipre, Juan José, priority 2017, dated 2018).
Read-outs that look alike come from different tables or passages of the source.

Conditions: 0.1N solution

Structure (SMILES): O=C(O)CC(O)(CC(=O)O)C(=O)O [Ingredient 1, 2-HYDROXY-1, 2, 3 TRI[…]]
- pH: 2.2
- pH (listed as E): 2.2 (0.1 N)
